Assay results from patent US12102638B2 (Urovant Sciences GmbH, priority 2017, dated 2024).
“And” between values parts separate entries of the source, which are not always exact repeats. Equal values may be shown once.

Tests used:
[1] = test system: healthy subjects; assay: thorough QT single oral dose study; format: in vivo, human
[2] = molecular target: CYP3A4 (Homo sapiens, UniProt P08684); assay: in vitro metabolism by CYPs; format: in vitro ADME
[3] = molecular target: β2-AR (Homo sapiens, UniProt P07550); assay: competition binding assay, membranes with recombinant β2-AR
[4] = human, in vivo
[5] = multiple rising dose Phase 1 pharmacokinetics in healthy subjects; format: in vivo, human

Chain of CYP3A4 (P08684 whole entry): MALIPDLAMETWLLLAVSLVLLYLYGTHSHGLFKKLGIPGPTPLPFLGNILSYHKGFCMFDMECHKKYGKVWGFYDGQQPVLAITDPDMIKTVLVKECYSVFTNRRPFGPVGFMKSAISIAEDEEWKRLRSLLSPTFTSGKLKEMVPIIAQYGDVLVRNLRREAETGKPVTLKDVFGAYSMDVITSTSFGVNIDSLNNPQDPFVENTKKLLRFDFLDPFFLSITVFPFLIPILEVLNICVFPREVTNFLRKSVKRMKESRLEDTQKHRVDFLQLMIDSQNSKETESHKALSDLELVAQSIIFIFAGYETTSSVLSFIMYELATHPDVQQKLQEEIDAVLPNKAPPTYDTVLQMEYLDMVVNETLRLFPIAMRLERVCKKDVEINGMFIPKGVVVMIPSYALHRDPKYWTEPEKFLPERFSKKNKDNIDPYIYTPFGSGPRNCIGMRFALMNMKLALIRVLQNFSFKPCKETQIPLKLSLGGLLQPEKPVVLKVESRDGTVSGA
Chain of β2-AR (P07550 whole entry): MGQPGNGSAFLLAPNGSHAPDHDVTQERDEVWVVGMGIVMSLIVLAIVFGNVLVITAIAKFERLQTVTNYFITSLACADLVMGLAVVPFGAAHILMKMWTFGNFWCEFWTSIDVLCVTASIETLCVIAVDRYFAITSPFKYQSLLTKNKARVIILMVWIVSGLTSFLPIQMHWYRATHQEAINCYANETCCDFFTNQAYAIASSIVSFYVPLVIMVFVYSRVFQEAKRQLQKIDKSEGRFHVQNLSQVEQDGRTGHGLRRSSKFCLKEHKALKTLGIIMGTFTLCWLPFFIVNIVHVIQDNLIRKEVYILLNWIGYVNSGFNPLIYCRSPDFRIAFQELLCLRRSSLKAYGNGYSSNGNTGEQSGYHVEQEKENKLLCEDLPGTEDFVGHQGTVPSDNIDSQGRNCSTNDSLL

With O=C(Nc1ccc(C[C@@H]2CC[C@H]([C@H](O)c3ccccc3)N2)cc1)[C@@H]1CCc2nccc(=O)n21 [vibegron, (6S)—N-[4-[[(2S,5R)-5-[(R)-hydroxy(phenyl)methyl]pyrrolidin-2-yl]methyl]phenyl]-4-oxo-7,8-dihydro-6H-pyrrolo[1,2-a]pyrimidine-6-carboxamide] the “AUC, mean ± SD” value ([1]; single 200 mg) was 2430 ± 974 ng·h/mL, the “Maximum Mean Placebo Corrected Change from Baseline Diastolic BP” value ([1]; single 200 mg) was 2.42 mmHg and the “Maximum Mean Placebo Corrected Change from Baseline RR interval” value ([1]; single 200 mg) was -84.36 ms. For the same molecule, the “Maximum Mean Placebo Corrected Change from Baseline Systolic BP” value ([1]; single 200 mg) was 2.20 mmHg, the “upper limits of the 90% CIs of all QTcF mean differences from placebo” value ([1]; single 200 mg and 400 mg) was less than 10 ms and the “QTcF LS mean difference from placebo” value ([1]; single 200 mg, 0.5 hour) was 2.90 ms. The “QTcF change from baseline, LS mean” value ([1]; single 200 mg, 0.5 hour) was 1.90 ms, the “QTcF change from baseline, LS mean” value ([1]; single 200 mg, 1 hour) was 4.87 ms and the “QTcF LS mean difference from placebo” value ([1]; single 200 mg, 1 hour (maximum)) was 4.98 (3.07, 6.88) msec and 4.98 msec. The “QTcF LS mean difference from placebo” value ([1]; single 200 mg, 2 hour) was 2.14 ms, the “QTcF change from baseline, LS mean” value ([1]; single 200 mg, 2 hour) was 2.06 ms and the “QTcF LS mean difference from placebo” value ([1]; single 200 mg, 3 hour) was 0.40 ms. For the same molecule, the “QTcF change from baseline, LS mean” value ([1]; single 200 mg, 3 hour) was 1.14 ms, the “QTcF LS mean difference from placebo” value ([1]; single 200 mg, 4 hour) was -0.83 ms and the “QTcF change from baseline, LS mean” value ([1]; single 200 mg, 4 hour) was -0.40 ms. The “QTcF LS mean difference from placebo” value ([1]; single 200 mg, 6 hour) was -1.26 ms, the “QTcF change from baseline, LS mean” value ([1]; single 200 mg, 6 hour) was -6.89 ms and the “QTcF LS mean difference from placebo” value ([1]; single 200 mg, 8 hour) was -1.24 ms. The “QTcF change from baseline, LS mean” value ([1]; single 200 mg, 8 hour) was -9.59 ms, the “QTcF LS mean difference from placebo” value ([1]; single 200 mg, 10 hour) was -2.67 ms and the “QTcF change from baseline, LS mean” value ([1]; single 200 mg, 10 hour) was -8.82 ms. The “QTcF LS mean difference from placebo” value ([1]; single 200 mg, 12 hour) was -3.72 ms, the “QTcF change from baseline, LS mean” value ([1]; single 200 mg, 12 hour) was -6.82 ms and the “QTcF LS mean difference from placebo” value ([1]; single 200 mg, 23.5 hour) was 0.38 ms. For the same molecule, the “QTcF change from baseline, LS mean” value ([1]; single 200 mg, 23.5 hour) was -2.15 ms, the “AUC, mean ± SD” value ([1]; single 400 mg) was 6800 ± 2300 ng·h/mL and the “Maximum Mean Placebo Corrected Change from Baseline Diastolic BP” value ([1]; single 400 mg) was 3.99 mmHg. For the same molecule, the “Maximum Mean Placebo Corrected Change from Baseline RR interval” value ([1]; single 400 mg) was -162.45 ms, the “Maximum Mean Placebo Corrected Change from Baseline Systolic BP” value ([1]; single 400 mg) was 3.97 mmHg and the “QTcF LS mean difference from placebo” value ([1]; single 400 mg, 0.5 hour) was 3.37 ms. For the same molecule, the “QTcF change from baseline, LS mean” value ([1]; single 400 mg, 0.5 hour) was 2.37 ms, the “QTcF change from baseline, LS mean” value ([1]; single 400 mg, 1 hour) was 4.49 ms and the “QTcF LS mean difference from placebo” value ([1]; single 400 mg, 1 hour (maximum)) was 4.60 (2.71, 6.48) msec and 4.60 msec. The “QTcF LS mean difference from placebo” value ([1]; single 400 mg, 2 hour) was 0.81 ms, the “QTcF change from baseline, LS mean” value ([1]; single 400 mg, 2 hour) was 0.73 ms and the “QTcF LS mean difference from placebo” value ([1]; single 400 mg, 3 hour) was -1.04 ms. For the same molecule, the “QTcF change from baseline, LS mean” value ([1]; single 400 mg, 3 hour) was -0.30 ms, the “QTcF LS mean difference from placebo” value ([1]; single 400 mg, 4 hour) was -2.96 ms and the “QTcF change from baseline, LS mean” value ([1]; single 400 mg, 4 hour) was -2.53 ms. For the same molecule, the “QTcF LS mean difference from placebo” value ([1]; single 400 mg, 6 hour) was -2.70 ms, the “QTcF change from baseline, LS mean” value ([1]; single 400 mg, 6 hour) was -8.33 ms and the “QTcF LS mean difference from placebo” value ([1]; single 400 mg, 8 hour) was -3.24 ms. For the same molecule, the “QTcF change from baseline, LS mean” value ([1]; single 400 mg, 8 hour) was -11.60 ms, the “QTcF LS mean difference from placebo” value ([1]; single 400 mg, 10 hour) was -4.14 ms and the “QTcF change from baseline, LS mean” value ([1]; single 400 mg, 10 hour) was -10.29 ms. For the same molecule, the “QTcF LS mean difference from placebo” value ([1]; single 400 mg, 12 hour) was -4.00 ms, the “QTcF change from baseline, LS mean” value ([1]; single 400 mg, 12 hour) was -7.10 ms and the “QTcF LS mean difference from placebo” value ([1]; single 400 mg, 23.5 hour) was -0.34 ms. For the same molecule, the “QTcF change from baseline, LS mean” value ([1]; single 400 mg, 23.5 hour) was -2.87 ms, the “effect on QTc or blood pressure” value ([1]; thorough QT study) was “no clinically meaningful effect on QTc or blood pressure” and the “CYP responsible for in vitro metabolism” value [2] was “CYP3A4 is the predominant CYP”. The “binding to β2-AR” value [3] was “does not bind”, the “dose recovered in feces” value [4] was “approximately 59%” and the “dose recovered in urine” value [4] was roughly 20%. The “fraction of dose excreted at steady state (fe0-24hr, ss)” value ([5]; 100 mg, elderly subjects) was roughly 17%, the “fraction of dose excreted at steady state (fe0-24hr, ss)” value ([5]; 100 and 150 mg, young males) was roughly 14% and the “steady state exposure (AUC0-24) higher in elderly Japanese than elderly non-Japanese” value ([5]; Day 14) was 35%. The “steady state Cmax in elderly compared to young males” value ([5]; QD doses of 100 mg) was roughly 1.3 fold, the concentration at 14 days ([5]; both sexes, human, plasma, oral, 100 mg, multiple dose 100 mg, after 14 days, Elderly Male and Female, read-out: Ctrough) was 54.2 ng/mL and the “Cmax higher in elderly and females than healthy young males” value ([5]; human, in vivo) was 50-70%.
